The values that follow come from patent US20260049072A1, “HETEROCYCLIC COMPOUND FOR INDUCING DEGRADATION OF MUTANT KRAS PROTEIN” (Astellas Pharma Inc., priority 2022, published 2026).

Molecules are shown by their SMILES.

The subject of assay [1] is PA-TU-8902 xenograft. Nature of the assay: Anti-tumor activity in PA-TU-8902 xenograft mouse. In kind it is in vivo. The conditions noted are these: 30 mg/kg, tail vein, twice a week for two weeks, male nude mice. The protocol:
(§1) Test Example 4: Evaluation of Anti-Tumor Activity in Human KRAS G12V Mutant-Positive Pancreatic Cancer Line PA-TU-8902 or Human KRAS G12D Mutant-Positive Pancreatic Cancer Line PK-59 Xenograft Mouse
(§2) PA-TU-8902 cells or PK-59 cells (RIKEN BRC, RCB1901) were cultured using DMEM medium or RPMI-1640 medium containing 10% fetal bovine serum, respectively, in the presence of 5% CO2 at 37° C. The PA-TU-8902 cells or the PK-59 cells were collected and suspended in PBS, and two equivalents of VitroGel Hydrogel Matrix (from TheWell Bioscience) was added. A cell suspension prepared at 1.0-2.0×10^7 cells/mL was subcutaneously inoculated in a volume of 100 μL in 4- to 6-week-old male nude mice (BALB/c-nu (nu/nu), from The Jackson Laboratory Japan, Inc.). After about two weeks of the inoculation, the mice were divided into groups so that all the groups had approximately the same tumor volume and body weight, and administration of a subject compound was started on the next day. The test was conducted for five mice for each of a solvent group and a subject compound administration group. The solvent used was a solvent containing ethanol (from FUJIFILM Wako), an aqueous (2-hydroxypropyl)-β-cyclodextrin (HP-PCD) solution (from ROQUETTE), HCO-40 (from Nikko Chemicals Co., Ltd.) dissolved in a 5% glucose solution (from Otsuka Pharmaceutical) at a ratio of 4%, 0.5%, and 9%, respectively. The compound was dissolved using the solvent. The subject compound dissolved in the solvent or the solvent was administered into tail vein. The administration was performed once or twice a week for two weeks. The tumor size and the body weight were measured twice a week. The tumor volume was calculated by using the following formula.
(§3) [Tumor volume (mm^3)]=[Major axis of tumor (mm)]×[Minor axis of tumor (mm)]^2×0.5
(§4) The tumor growth inhibition (%) by the subject compound was calculated with the tumor volume of the subject compound administration group on the previous day of the start of the administration taken as 100% inhibition and the tumor volume of the solvent group of the day of the final measurement taken as 0% inhibition.

In assay [2] the test system is PK-59 xenograft. Description: Anti-tumor activity in PK-59 xenograft mouse. Conditions: 10 mg/kg, tail vein, once a week for two weeks, male nude mice. In kind it is in vivo. The protocol: as §1, §2, §3, §4

For the compound `CO[C@@H](C)COc1nc(NC2CN(C(=O)O[C@H]3C[C@@H](N(C)C)C3)C2)c2cc(C3CC3)c(-c3c(C)c(F)cc4[nH]ncc34)c(OCc3ccc(-c4cn([C@H](C(=O)N5C[C@H](O)C[C@H]5C(=O)N[C@@H](CO)c5ccc(-c6ocnc6C)cc5)C(C)C)nn4)cc3)c2n1` (atropisomer, axis not shown; (M)) [Example 1, (1s,3R)-3-(dimethylamino)cyclobutyl 3-({(7M)-6-cyclopropyl-7-(6-fluoro-5-methyl-1H-indazol-4-yl)-8-{[4-(1-{(2S)-1-[(2S,4R)-4-hydroxy-2-({(1R)-2-hydroxy-1-[4-(4-methyl-1,3-oxazol-5-yl)phenyl]ethyl}carbamoyl)pyrrolidin-1-yl]-3-methyl-1-oxobutan-2-yl}-1H-1,2,3-triazol-4-yl)phenyl]methoxy}-2-[(2S)-2-methoxypropoxy]quinazolin-4-yl}amino)azetidine-1-carboxylate], the “Anti-tumor activity at final measurement (PA-TU-8902 xenograft mouse), tumor growth inhibition” value in assay [1] stood at 69% inhibition. Also, the “Anti-tumor activity at final measurement (PK-59 xenograft mouse), tumor growth inhibition” value in assay [2] is on record as 68% inhibition.

`CO[C@@H](C)COc1cc(OC2CN(C(=O)N3CC(CN(C)C)C3)C2)c2cc(C3CC3)c(-c3c(C)c(F)cc4[nH]ncc34)c(OCc3ccc(-c4cn([C@H](C(=O)N5C[C@H](O)C[C@H]5C(=O)N[C@@H](CO)c5ccc(-n6cncn6)cc5)C(C)C)nn4)cc3)c2n1` (atropisomer, axis not shown; (M)) [Example 5, (4R)-1-[(2S)-2-(4-{4-[({(7M)-6-cyclopropyl-4-[(1-{3-[(dimethylamino)methyl]azetidine-1-carbonyl}azetidin-3-yl)oxy]-7-(6-fluoro-5-methyl-1H-indazol-4-yl)-2-[(2S)-2-methoxypropoxy]quinolin-8-yl}oxy)methyl]phenyl}-1H-1,2,3-triazol-1-yl)-3-methylbutanoyl]-4-hydroxy-N-{(1R)-2-hydroxy-1-[4-(1H-1,2,4-triazol-1-yl)phenyl]ethyl}-L-prolinamide]: the “Anti-tumor activity at final measurement (PA-TU-8902 xenograft mouse), tumor growth inhibition” value in assay [1] was determined as 56% inhibition. Moreover, in assay [2], the “Anti-tumor activity at final measurement (PK-59 xenograft mouse), tumor growth inhibition” value is 92% inhibition.

For `CO[C@@H](C)COc1nc(NC2CN(C(=O)O[C@H]3C[C@@H](N(C)C)C3)C2)c2cc(C3CC3)c(-c3c(C)c(F)cc4[nH]ncc34)c(OCc3ccc(-c4cn([C@H](C(=O)N5C[C@H](O)C[C@H]5C(=O)N[C@@H](CO)c5ccc(-c6scnc6C)cc5)C(C)C)nn4)cc3)c2n1` (atropisomer, axis not shown; (M)) [Example 11, (1s,3R)-3-(dimethylamino)cyclobutyl 3-({(7M)-6-cyclopropyl-7-(6-fluoro-5-methyl-1H-indazol-4-yl)-8-{[4-(1-{(2S)-1-[(2S,4R)-4-hydroxy-2-({(1R)-2-hydroxy-1-[4-(4-methyl-1,3-thiazol-5-yl)phenyl]ethyl}carbamoyl)pyrrolidin-1-yl]-3-methyl-1-oxobutan-2-yl}-1H-1,2,3-triazol-4-yl)phenyl]methoxy}-2-[(2S)-2-methoxypropoxy]quinazolin-4-yl}amino)azetidine-1-carboxylate], the “Anti-tumor activity at final measurement (PA-TU-8902 xenograft mouse), tumor growth inhibition” value in assay [1] was 73% inhibition. Further, in assay [2], the “Anti-tumor activity at final measurement (PK-59 xenograft mouse), tumor growth inhibition” value was 95% inhibition.

As for `CO[C@@H](C)COc1cc(OC2CN(C(=O)NCCN(C)C)C2)c2cc(C3CC3)c(-c3c(C)c(F)cc4[nH]ncc34)c(OCc3ccc(-c4cn([C@H](C(=O)N5C[C@H](O)C[C@H]5C(=O)N[C@@H](CO)c5ccc(-n6cncn6)cc5)C(C)C)nn4)cc3)c2n1` (atropisomer, axis not shown; (M)) [Example 12, (4R)-1-[(2S)-2-(4-{4-[({(7M)-6-cyclopropyl-4-[(1-{[2-(dimethylamino)ethyl]carbamoyl}azetidin-3-yl)oxy]-7-(6-fluoro-5-methyl-1H-indazol-4-yl)-2-[(2S)-2-methoxypropoxy]quinolin-8-yl}oxy)methyl]phenyl}-1H-1,2,3-triazol-1-yl)-3-methylbutanoyl]-4-hydroxy-N-{(1R)-2-hydroxy-1-[4-(1H-1,2,4-triazol-1-yl)phenyl]ethyl}-L-prolinamide], the “Anti-tumor activity at final measurement (PA-TU-8902 xenograft mouse), tumor growth inhibition” value in assay [1] came out at 61% inhibition. For the same compound, the “Anti-tumor activity at final measurement (PK-59 xenograft mouse), tumor growth inhibition” value in assay [2] came out at 63% inhibition.

As to `CO[C@@H](C)COc1cc(OC2CN(C(=O)O[C@H]3C[C@@H](N(C)C)C3)C2)c2cc(C3CC3)c(-c3c(C)c(F)cc4[nH]ncc34)c(OCc3ccc(-c4cn([C@H](C(=O)N5C[C@H](O)C[C@H]5C(=O)N[C@@H](CO)c5ccc(-n6cncn6)cc5)C(C)C)nn4)cc3)c2n1` (atropisomer, axis not shown; (M)) [Example 13, (1s,3R)-3-(dimethylamino)cyclobutyl 3-({(7M)-6-cyclopropyl-7-(6-fluoro-5-methyl-1H-indazol-4-yl)-8-{[4-(1-{(2S)-1-[(2S,4R)-4-hydroxy-2-({(1R)-2-hydroxy-1-[4-(1H-1,2,4-triazol-1-yl)phenyl]ethyl}carbamoyl)pyrrolidin-1-yl]-3-methyl-1-oxobutan-2-yl}-1H-1,2,3-triazol-4-yl)phenyl]methoxy}-2-[(2S)-2-methoxypropoxy]quinolin-4-yl}oxy)azetidine-1-carboxylate], the “Anti-tumor activity at final measurement (PA-TU-8902 xenograft mouse), tumor growth inhibition” value in assay [1] is listed as 57% inhibition. The “Anti-tumor activity at final measurement (PK-59 xenograft mouse), tumor growth inhibition” value in assay [2] is on record as 78% inhibition.
